Values after ≈ are worked out from the molar mass of the structure shown.
Columns and labels:
[1] = Antioxidant activity assessed as nitric oxide scavenging activity; assay type: functional
[2] = Antioxidant activity assessed as hydroxy radical scavenging activity; assay type: functional
[3] = Antioxidant activity assessed as ABTS radical scavenging activity; assay type: functional
[4] = test system: Radical scavenging activity; assay: Antioxidant activity assessed as DPPH radical scavenging activity; assay type: functional
[5] = Antioxidant activity assessed as super oxide scavenging activity; assay type: functional
Rattus norvegicus [6] = assay: Effect on Wister albino rat MDA level in serum per mg of protein at 40 mg/kg, po for 7 days (reference value: 0.67 +/- 0.03 nmol/h/mg of protein); assay type: ADME, organism-based; set-up: dose 40 mg/kg, route oral; settings: in vivo, 168 h
Rattus norvegicus [7] = assay: Effect on Wister albino rat LOOH level in serum per mg of protein at 40 mg/kg, po for 7 days (reference value: 2.90 +/- 0.74 noml/mg of protein); assay type: ADME, organism-based; set-up: dose 40 mg/kg, route oral; settings: in vivo, 168 h
Rattus norvegicus [8] = assay: Effect on Wister albino rat SGPT level in serum at 40 mg/kg, po for 7 days (reference value: 30.25 +/- 3.17 U/L); assay type: ADME, organism-based; set-up: dose 40 mg/kg, route oral; settings: in vivo, 168 h
Rattus norvegicus [9] = assay: Effect on Wister albino rat LDH level in serum at 40 mg/kg, po for 7 days (reference value: 29.64 +/- 6.71 IU/L); assay type: ADME, organism-based; set-up: dose 40 mg/kg, route oral; settings: in vivo, 168 h
Rattus norvegicus [10] = assay: Effect on Wister albino rat cTnT level in serum at 40 mg/kg, po for 7 days (reference value: 0.66 +/- 0.02 ng/ml); assay type: ADME, organism-based; set-up: dose 40 mg/kg, route oral; settings: in vivo, 168 h
Rattus norvegicus [11] = assay: Effect on Wister albino rat CK-MB level in serum at 40 mg/kg, po for 7 days (reference value: 84.68 +/- 3.67 IU/L); assay type: ADME, organism-based; set-up: dose 40 mg/kg, route oral; settings: in vivo, 168 h
Rattus norvegicus [12] = assay: Cardioprotective effect in isoproterenol-induced Wister albino rats assessed as LOOH level in serum per mg protein at 40 mg/kg, po for 7 days (reference value: 7.67 +/- 1.07 noml/mg of protein); assay type: functional
Rattus norvegicus [13] = assay: Cardioprotective effect in isoproterenol-induced Wister albino rats assessed as MDA level in serum per mg protein at 40 mg/kg, po for 7 days (reference value: 2.76 +/- 0.39 nmol/h/mg of protein); assay type: functional
Rattus norvegicus [14] = assay: Cardioprotective effect in isoproterenol-induced Wister albino rats assessed as SGPT level in serum at 40 mg/kg, po for 7 days (reference value: 76.07 +/- 4.16 U/L); assay type: functional
Rattus norvegicus [15] = assay: Cardioprotective effect in isoproterenol-induced Wister albino rats assessed as cTnT level in serum at 40 mg/kg, po for 7 days (reference value: 1.99 +/- 0.06 ng/ml); assay type: functional
Rattus norvegicus [16] = assay: Cardioprotective effect in isoproterenol-induced Wister albino rats assessed as LDH level in serum at 40 mg/kg, po for 7 days (reference value: 216.66 +/- 12.46 IU/L); assay type: functional
Rattus norvegicus [17] = assay: Cardioprotective effect in isoproterenol-induced Wister albino rats assessed as CK-MB level in serum at 40 mg/kg, po for 7 days (reference value: 146.56 +/- 7.14 IU/L); assay type: functional
Rattus norvegicus [18] = assay: Cardioprotective effect in isoproterenol-induced Wister albino rats assessed as tissue viability with less necrotic tissue at 40 mg/kg, po for 7 days by light microscopy (reference value: 52%); assay type: functional
Rattus norvegicus [19] = assay: Effect on Wister albino rat inflammatory cells at 40 mg/kg, po by light microscopy (reference value: 0%); assay type: ADME, organism-based; set-up: dose 40 mg/kg, route oral; settings: in vivo
Rattus norvegicus [20] = assay: Cardioprotective effect in isoproterenol-induced Wister albino rats assessed as inflammatory cells at 40 mg/kg, po for 7 days by light microscopy (reference value: 30.1%); assay type: functional
Rattus norvegicus [21] = assay: Effect on Wister albino rat tissue degradation at 40 mg/kg, po by light microscopy (reference value: 0%); assay type: ADME, organism-based; set-up: dose 40 mg/kg, route oral; settings: in vivo
Rattus norvegicus [22] = assay: Cardioprotective effect in isoproterenol-induced Wister albino rats assessed as tissue degradation at 40 mg/kg, po for 7 days by light microscopy (reference value: 55.15%); assay type: functional
Rattus norvegicus [23] = assay: Effect on Wister albino rat heart rate elevation at 40 mg/kg, po by Electrocardiographic assay (reference value: 265 +/- 3.71 beats/mins); assay type: ADME, organism-based; set-up: dose 40 mg/kg, route oral; settings: in vivo
Rattus norvegicus [24] = assay: Cardioprotective effect in isoproterenol-induced Wister albino rats assessed as inhibition of heart rate at 40 mg/kg, po for 7 days by Electrocardiographic assay (reference value: 430 +/- 5.16 beats/mins); assay type: functional
Rattus norvegicus [25] = assay: Effect on Wister albino rat ST-segment elevation at 40 mg/kg, po by Electrocardiographic assay (reference value: 0.157 +/- 0.003 mV); assay type: ADME, organism-based; set-up: dose 40 mg/kg, route oral; settings: in vivo
Rattus norvegicus [26] = assay: Cardioprotective effect in isoproterenol-induced Wister albino rats assessed as inhibition of ST-segment elevation at 40 mg/kg, po for 7 days by Electrocardiographic assay (reference value: 0.390 +/- 0.015 mV); assay type: functional

Structure (SMILES): C=C[C@H]1[C@H](O[C@@H]2O[C@H](CO)[C@@H](O)[C@H](O)[C@H]2O)OC=C2C(=O)N3CCc4c(n(O[C@@H]5O[C@@H](C)[C@H](O)[C@@H](O)[C@H]5O)c5ccccc45)[C@H]3C[C@H]21
- IC50 [1]: 7.16 µg/mL (≈ 10.8 µM)
- IC50 [2]: 4.95 µg/mL (≈ 7.49 µM)
- IC50 [3]: 29.65 µg/mL (≈ 44.9 µM)
- IC50 [4]: 37.76 µg/mL (≈ 57.2 µM)
- IC50 [5]: 16.71 µg/mL (≈ 25.3 µM)
- Activity (Rattus norvegicus [6]): 0.79 nmol/h/mg protein
- Activity (Rattus norvegicus [7]): 2.62 nmol
- Activity (Rattus norvegicus [8]): 22.11 U/L
- Activity (Rattus norvegicus [9]): 117.34 IU/L
- Activity (Rattus norvegicus [10]): 0.62 ng/mL
- Activity (Rattus norvegicus [11]): 82.12 IU/L
- Activity (Rattus norvegicus [12]): 4.1 nmol
- Activity (Rattus norvegicus [13]): 0.99 nmol/h/mg protein
- Activity (Rattus norvegicus [14]): 58.92 U/L
- Activity (Rattus norvegicus [15]): 0.67 ng/mL
- Activity (Rattus norvegicus [16]): 160.72 IU/L
- Activity (Rattus norvegicus [17]): 92.01 IU/L
- Activity (Rattus norvegicus [18]): 20%
- Activity (Rattus norvegicus [19]): 0%
- Activity (Rattus norvegicus [20]): 0%
- Activity (Rattus norvegicus [21]): 0%
- Activity (Rattus norvegicus [22]): 0%
- Activity (Rattus norvegicus [23]): 270 bpm
- Activity (Rattus norvegicus [24]): 260 bpm
- Activity (Rattus norvegicus [25]): 0.14 mV
- Activity (Rattus norvegicus [26]): 0.22 mV

From ChEMBL document CHEMBL2346619, “Cardioprotective potential of N,α-L-rhamnopyranosyl vincosamide, an indole alkaloid, isolated from the leaves of Moringa oleifera in isoproterenol induced cardiotoxic rats: in vivo and in vitro studies” (Bioorg Med Chem Lett, 2013)
